Read-outs that look alike come from different tables or passages of the source.
Columns and labels:
[1] = log P by HPLC on reversed-phase column (EEC Directive 79/831 Annex V.A8); format: physicochemical; conditions: pH 7.8, 0.001 molar aqueous ammonium hydrogencarbonate/acetonitrile, 55° C., read-out: log P (neutral)
Excerpt: Called log P (neutral) in the table.

Phaedon cochleariae = Phaedon cochleariae spray test; format: in vivo; conditions: 500 g/ha, after 7 days, larvae on Chinese cabbage leaf discs
Protocol: Phaedon cochleariae—Spray Test
(§1) Solvent: 78.0 parts by weight of acetone • • 1.5 parts by weight of dimethylformamide
(§2) Emulsifier: alkylaryl polyglycol ether
(§3) To produce a suitable preparation of active compound, 1 part by weight of active compound is dissolved using the stated parts by weight of solvent and made up with water containing an emulsifier concentration of 1000 ppm until the desired concentration is attained. To produce further test concentrations, the preparation is diluted with emulsifier-containing water.
After 7 days, the efficacy in % is determined. 100% means that all the beetle larvae have been killed; 0% means that no beetle larvae have been killed.

Boophilus microplus = Boophilus microplus injection test; format: in vivo; conditions: 20 μg/animal, assessed after 7 days
Protocol: Boophilus microplus—Injection Test
(§4) Solvent: dimethyl sulphoxide
To produce a suitable preparation of active compound, 10 mg of active compound are mixed with 0.5 ml of solvent and the concentrate is diluted with solvent to the desired concentration.
1 μl of the active compound solution is injected into the abdomen of 5 engorged adult female cattle ticks (Boophilus microplus). The animals are transferred into dishes and kept in a climate-controlled room.
Efficacy is assessed after 7 days by laying of fertile eggs. Eggs which are not visibly fertile are stored in a climate-controlled cabinet until the larvae hatch after about 42 days. An efficacy of 100% means that none of the ticks has laid any fertile eggs; 0% means that all the eggs are fertile.

Tetranychus urticae = Tetranychus urticae spray test, OP-resistant; format: in vivo; conditions: after 6 days, bean leaf discs
Protocol: Tetranychus urticae—Spray Test, OP-Resistant
as §1, §2, §3
Discs of bean leaves (Phaseolus vulgaris) infested with all stages of the greenhouse red spider mite (Tetranychus urticae) are sprayed with an active compound preparation of the desired concentration.
After 6 days, the efficacy in % is determined. 100% means that all the spider mites have been killed; 0% means that no spider mites have been killed.

Myzus persicae = Myzus persicae spray test (Chinese cabbage leaf discs); format: in vivo; conditions: 500 g/ha, after 6 days
Protocol: Myzus persicae—Spray Test Solvent: 78 parts by weight of acetone • • 1.5 parts by weight of dimethylformamide Emulsifier: alkylaryl polyglycol ether […] To produce further test concentrations, the preparation is diluted with emulsifier-containing water. Discs of Chinese cabbage leaves (Brassica pekinensis) infested by all stages of the green peach aphid (Myzus persicae) are sprayed with an active compound preparation of the desired concentration.

Ctenocephalides felis [2] = experiment: Ctenocephalides felis in vitro contact test with adult cat fleas; format: in vivo; conditions: 5 μg/cm^2 (500 g/ha), after 48 h
Protocol: Ctenocephalides felis—In Vitro Contact Tests with Adult Cat Fleas
For the coating of the test tubes, 9 mg of active compound are first dissolved in 1 ml of acetone p.a. and then diluted to the desired concentration with acetone p.a. 250 μl of the solution are distributed homogeneously on the inner walls and the base of a 25 ml test tube by turning and rocking on an orbital shaker (rocking rotation at 30 rpm for 2 h). With 900 ppm active compound solution and internal surface 44.7 cm^2, given homogeneous distribution, an area-based dose of 5 μg/cm^2 is achieved.
After the solvent has evaporated off, the tubes are populated with 5-10 adult cat fleas (Ctenocephalides felis), sealed with a perforated plastic lid and incubated in a horizontal position at room temperature and ambient humidity. After 48 h, efficacy is determined. To this end, the test tubes are stood upright and the fleas are knocked to the base of the tube. Fleas which remain motionless at the base or move in an uncoordinated manner are considered to be dead or moribund.
100% efficacy means that all the fleas were dead or moribund. 0% efficacy means that no fleas were harmed.

Spodoptera frugiperda = Spodoptera frugiperda spray test (maize leaf discs); format: in vivo; conditions: 500 g/ha, after 7 days, caterpillars on maize leaf discs
Protocol: Spodoptera frugiperda—Spray Test Solvent: 78.0 parts by weight of acetone • • 1.5 parts by weight of dimethylformamide Emulsifier: alkylaryl polyglycol ether […] To produce further test concentrations, the preparation is diluted with emulsifier-containing water. Leaf discs of maize (Zea mays) are sprayed with an active compound preparation of the desired concentration and, after drying, populated with caterpillars of the armyworm (Spodoptera frugiperda).

Lucilia cuprina = Lucilia cuprina test; format: in vivo; conditions: 100 ppm, after 2 days, L1 larvae
Protocol: as §4
(§5) To produce a suitable preparation of active compound, 10 mg of active compound are mixed with 0.5 ml of dimethyl sulphoxide, and the concentrate is diluted with water to the desired concentration.
About 20 L1 larvae of the Australian sheep blowfly (Lucilia cuprina) are transferred into a test vessel containing minced horsemeat and the active compound preparation of the desired concentration.
After 2 days, the kill in % is determined. 100% means that all the larvae have been killed; 0% means that no larvae have been killed.

Musca domestica = Musca domestica test; format: in vivo; conditions: after 2 days, adult houseflies
Protocol: as §4, §5
Vessels containing a sponge treated with sugar solution and the active compound preparation of the desired concentration are populated with 10 adult houseflies (Musca domestica).
After 2 days, the kill in % is determined. 100% means that all of the flies have been killed; 0% means that none of the flies have been killed.

Ctenocephalides felis [3] = experiment: Ctenocephalides felis oral test; format: in vivo; conditions: 100 ppm in citrated cattle blood, after 2 days
Excerpt: Ctenocephalides felis—Oral Test Solvent: dimethyl sulphoxide […] Dilution with citrated cattle blood gives the desired concentration. About 20 unfed adult cat fleas (Ctenocephalides felis) are placed into a chamber which is closed at the top and bottom with gauze. A metal cylinder whose bottom end is closed with parafilm is placed onto the chamber. The cylinder contains the blood/active compound preparation, which can be imbibed by the fleas through the parafilm membrane.

Meloidogyne incognita = Meloidogyne incognita test; format: in vivo; conditions: 20 ppm, after 14 days, lettuce
Protocol: Meloidogyne incognita Test
Solvent: 125.0 parts by weight of acetone
To produce a suitable preparation of active compound, 1 part by weight of active compound is mixed with the stated amount of solvent and the concentrate is diluted with water to the desired concentration.
Vessels are filled with sand, active compound solution, an egg/larvae suspension of the southern root-knot nematode (Meloidogyne incognita) and lettuce seeds. The lettuce seeds germinate and the plants develop. The galls develop on the roots.
After 14 days, the nematicidal efficacy in % is determined by the formation of galls. 100% means that no galls were found; 0% means that the number of galls on the treated plants corresponds to the untreated control.

[4] = reversed-phase HPLC column (C18)

SMILES	efficacy (Phaedon cochleariae)	efficacy (laying of fertile eggs) (Boophilus microplus)	efficacy (Myzus persicae)	efficacy (Spodoptera frugiperda)	efficacy (kill) (Lucilia cuprina)	efficacy (kill) (Musca domestica; 100 ppm)	efficacy (kill) (Ctenocephalides felis [3])	also measured
Cn1c(-c2nc(Cl)ccc2Cl)nc2cc(C(F)(F)F)ncc21 [2-(3,6-Dichloro-2-pyridyl)-3-methyl-6-(trifluoromethyl)imidazo[4,5-c]pyridine]								chromatographic logP [1]: 2.81
CCSc1ccc(Cl)nc1-c1nc2cc(C(F)(F)F)ncc2n1C [2-(6-Chloro-3-ethylsulphanyl-2-pyridyl)-3-methyl-6-(trifluoromethyl)imidazo[4,5-c]pyridine]								chromatographic logP [1, 4]: 3.06
CCS(=O)(=O)c1ccc(Cl)nc1-c1nc2cc(C(F)(F)F)ncc2n1C [2-(6-Chloro-3-ethylsulphonyl-2-pyridyl)-3-methyl-6-(trifluoromethyl)imidazo[4,5-c]pyridine]								chromatographic logP [1, 4]: 2.54
CCS(=O)(=O)c1ccc(-n2cnc(S(C)(=O)=O)n2)nc1-c1nc2cc(C(F)(F)F)ncc2n1C [Example 5]	100%	90%	90%					efficacy (Tetranychus urticae; 500 g/ha): 90%
CCS(=O)(=O)c1ccc(-n2ccc(C(F)F)n2)nc1-c1nc2cc(C(F)(F)F)ncc2n1C [Example 8]	100%	95%	100%	100%	100%	100%	95%	efficacy (Ctenocephalides felis [2]): 100%
CCS(=O)(=O)c1ccc(-n2cc(C3CC3)cn2)nc1-c1nc2cc(C(F)(F)F)ncc2n1C [Example 13]	100%			100%	100%	100%	80%	
CCS(=O)(=O)c1ccc(-n2cnc(Cl)n2)nc1-c1nc2cc(C(F)(F)F)ncc2n1C [Example 18]	100%		100%		100%		100%	efficacy (Ctenocephalides felis [2]): 100%; efficacy (kill) (Musca domestica; 20 ppm): 100%
CCS(=O)(=O)c1ccc(-n2cc(C#N)cn2)nc1-c1nc2cc(C(F)(F)F)ncc2n1C [Example 19]	100%		90%	100%	100%	100%	100%	
CCS(=O)(=O)c1ccc(-c2ccsc2)nc1-c1nc2cc(C(F)(F)F)ncc2n1C [Example 20, 2-[3-Ethylsulphonyl-6-(3-thienyl)-2-pyridyl]-3-methyl-6-(trifluoromethyl)imidazo[4,5-c]pyridine]					100%			chromatographic logP [1, 4]: 3.13
CCS(=O)(=O)c1ccc(-n2ccc(C#N)n2)nc1-c1nc2cc(C(F)(F)F)ncc2n1C [Example 22]	100%	80%		100%	100%	80%	100%	
CCS(=O)(=O)c1ccc(-n2cc(C(F)(F)F)nn2)nc1-c1nc2cc(C(F)(F)F)ncc2n1C [Example 24]		80%		100%	100%	80%		
CCS(=O)(=O)c1ccc(-n2cc(C(F)(F)F)cn2)nc1-c1nc2cc(C(F)(F)F)ncc2n1C [Example 26, 2-[3-Ethylsulphonyl-6-[4-(trifluoromethyl)pyrazol-1-yl]-2-pyridyl]-3-methyl-6-(trifluoromethyl)-imidazo[4,5-c]pyridine]	100%			100%	100%	90%		chromatographic logP [1, 4]: 3.34
CCS(=O)(=O)c1ccc(-n2ccnc2)nc1-c1nc2cc(C(F)(F)F)ncc2n1C [Example 33]	100%	80%	90%				100%	efficacy (Ctenocephalides felis [2]): 100%; efficacy (Tetranychus urticae; 500 g/ha): 90%
CCS(=O)(=O)c1ccc(-n2cc(Cl)cn2)nc1-c1nc2cc(C(F)(F)F)ncc2n1C [Example 36]	100%	90%		100%	100%	85%	100%	
CCS(=O)(=O)c1ccc(-n2ccc(CS(C)(=O)=O)n2)nc1-c1nc2cc(C(F)(F)F)ncc2n1C [Example 40]	100%		90%					efficacy (Tetranychus urticae; 500 g/ha): 90%
CCS(=O)(=O)c1ccc(-n2ccc(C[S+](C)[O-])n2)nc1-c1nc2cc(C(F)(F)F)ncc2n1C (stereo not shown) [Example 49]	100%		90%					efficacy (Tetranychus urticae; 500 g/ha): 90%
CCS(=O)(=O)c1ccc(-n2cc(F)cn2)nc1-c1nc2cc(C(F)(F)C(F)(F)F)ncc2n1C [Example 59]	100%	90%		100%	100%	95%	100%	
CCS(=O)(=O)c1ccc(-c2ccncc2)nc1-c1nc2cc(C(F)(F)F)ncc2n1C [Example 78]	100%							efficacy (Tetranychus urticae; 100 g/ha): 90%
CCS(=O)(=O)c1ccc(-c2cccs2)nc1-c1nc2cc(C(F)(F)F)ncc2n1C [Example 79]								efficacy (Tetranychus urticae; 100 g/ha): 90%
CCS(=O)(=O)c1ccc(-c2ccco2)nc1-c1nc2cc(C(F)(F)F)ncc2n1C [Example 80]								efficacy (Tetranychus urticae; 500 g/ha): 90%
CCS(=O)(=O)c1ccc(-c2cnc(Cl)n2C)nc1-c1nc2cc(C(F)(F)F)ncc2n1C [Example 81]	100%		90%	83%				nematicidal efficacy (formation of galls) (Meloidogyne incognita): 100%
CNc1cnc(C(F)(F)C(F)(F)F)cc1N [II-1, N3-Methyl-6-(1,1,2,2,2-pentafluoroethyl)pyridine-3,4-diamine]								chromatographic logP [1, 4]: 1.68
